Where two headings read alike, the source gives them in different places.
Tested on: MDRAB
Test: Checkerboard assay (combined-use MIC, FIC)
Type: cell-based, Acinetobacter baumannii
Conditions: for FIC, all strains / MIC50 of the antibiotic after combined use / MIC90 of the antibiotic after combined use / reduction of the antibiotic's MIC50 vs single use / reduction of the antibiotic's MIC90 vs single use / share of strains with FIC ≤ 0.5: 20 MDRABs; for MIC: Acinetobacter baumannii, read-out: single-use MIC
Outline: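 Checkerboard combinations of S20b and antibiotic run per NCCLS method against ESBL E. coli, MDR A. baumannii and MDR P. aeruginosa.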

[1] = antibiotic with 60% ethanol extract
[2] = antibiotic with 95% ethanol extract
[3] = antibiotic with EA (10% ethanol extract)
[4] = antibiotic with EA (water extract)

## C[C@H]1COc2c(N3CCN(C)CC3)c(F)cc3c(=O)c(C(=O)O)cn1c23 [LVX, Levofloxacin]
[1]
  FIC, all strains: ≤ 2
  MIC50 of the antibiotic after combined use: 4 µg/mL
  MIC90 of the antibiotic after combined use: 8 µg/mL
  reduction of the antibiotic's MIC50 vs single use: 50%
  reduction of the antibiotic's MIC90 vs single use: 75%
  share of strains with FIC ≤ 0.5: 5%
[2]
  FIC, all strains: ≤ 2
  MIC50 of the antibiotic after combined use: 4 µg/mL
  MIC90 of the antibiotic after combined use: 8 µg/mL
  reduction of the antibiotic's MIC50 vs single use: 50%
  reduction of the antibiotic's MIC90 vs single use: 75%
  share of strains with FIC ≤ 0.5: 20%
[3]
  FIC, all strains: ≤ 2
  MIC50 of the antibiotic after combined use: 4 µg/mL
  MIC90 of the antibiotic after combined use: 8 µg/mL
  reduction of the antibiotic's MIC50 vs single use: 50%
  reduction of the antibiotic's MIC90 vs single use: 75%
  share of strains with FIC ≤ 0.5: 25%
[4]
  FIC, all strains: ≤ 2
  MIC50 of the antibiotic after combined use: 2 µg/mL
  MIC90 of the antibiotic after combined use: 8 µg/mL
  reduction of the antibiotic's MIC50 vs single use: 75%
  reduction of the antibiotic's MIC90 vs single use: 75%
  share of strains with FIC ≤ 0.5: 35%
Strain A1, EA=10% ethanol extract
  MIC: 0.5 µg/mL
Strain A1, EA=60% ethanol extract
  MIC: 0.5 µg/mL
Strain A2, EA=10% ethanol extract
  MIC: 16 µg/mL
Strain A2, EA=60% ethanol extract
  MIC: 16 µg/mL
Strain A3, EA=10% ethanol extract
  MIC: 16 µg/mL
Strain A3, EA=60% ethanol extract
  MIC: 16 µg/mL
Strain A4, EA=10% ethanol extract
  MIC: 0.5 µg/mL
Strain A4, EA=60% ethanol extract
  MIC: 0.5 µg/mL
Strain A5, EA=10% ethanol extract
  MIC: 4 µg/mL
Strain A5, EA=60% ethanol extract
  MIC: 4 µg/mL
Strain A6, EA=10% ethanol extract
  MIC: 8 µg/mL
Strain A6, EA=60% ethanol extract
  MIC: 8 µg/mL
Strain A7, EA=10% ethanol extract
  MIC: 8 µg/mL
Strain A7, EA=60% ethanol extract
  MIC: 8 µg/mL
Strain A8, EA=10% ethanol extract
  MIC: 4 µg/mL
Strain A8, EA=60% ethanol extract
  MIC: 4 µg/mL
Strain A9, EA=10% ethanol extract
  MIC: 4 µg/mL
Strain A9, EA=60% ethanol extract
  MIC: 4 µg/mL
Strain A10, EA=10% ethanol extract
  MIC: 32 µg/mL
Strain A10, EA=60% ethanol extract
  MIC: 32 µg/mL
Strain A11, EA=10% ethanol extract
  MIC: 4 µg/mL
Strain A11, EA=60% ethanol extract
  MIC: 4 µg/mL
Strain A12, EA=10% ethanol extract
  MIC: 32 µg/mL
Strain A12, EA=60% ethanol extract
  MIC: 32 µg/mL
Strain A13, EA=10% ethanol extract
  MIC: 32 µg/mL
Strain A13, EA=60% ethanol extract
  MIC: 32 µg/mL
Strain A14, EA=10% ethanol extract
  MIC: 16 µg/mL
Strain A14, EA=60% ethanol extract
  MIC: 16 µg/mL
Strain A15, EA=10% ethanol extract
  MIC: 32 µg/mL
Strain A15, EA=60% ethanol extract
  MIC: 32 µg/mL
Strain A16, EA=10% ethanol extract
  MIC: 8 µg/mL
Strain A16, EA=60% ethanol extract
  MIC: 8 µg/mL
Strain A17, EA=10% ethanol extract
  MIC: 16 µg/mL
Strain A17, EA=60% ethanol extract
  MIC: 16 µg/mL
Strain A18, EA=10% ethanol extract
  MIC: 8 µg/mL
Strain A18, EA=60% ethanol extract
  MIC: 8 µg/mL
Strain A19, EA=10% ethanol extract
  MIC: 16 µg/mL
Strain A19, EA=60% ethanol extract
  MIC: 16 µg/mL
Strain A20, EA=10% ethanol extract
  MIC: 16 µg/mL
Strain A20, EA=60% ethanol extract
  MIC: 16 µg/mL
Strain A1, EA (10% ethanol extract) + LVX combined
  combined-use MIC: 0.0625 µg/mL
Strain A1, EA (60% ethanol extract) + LVX combined
  combined-use MIC: 0.0625 µg/mL
Strain A1, EA (P. clypearia 95% ethanol extract) combined with LVX
  combined-use MIC: 0.25 µg/mL
Strain A1, EA (water extract) with LVX
  combined-use MIC: 0.0625 µg/mL
Strain A2, EA (10% ethanol extract) + LVX combined
  combined-use MIC: 8 µg/mL
Strain A2, EA (60% ethanol extract) + LVX combined
  combined-use MIC: 16 µg/mL
Strain A2, EA (P. clypearia 95% ethanol extract) combined with LVX
  combined-use MIC: 8 µg/mL
Strain A2, EA (water extract) with LVX
  combined-use MIC: 16 µg/mL
Strain A3, EA (10% ethanol extract) + LVX combined
  combined-use MIC: 2 µg/mL
Strain A3, EA (60% ethanol extract) + LVX combined
  combined-use MIC: 0.0625 µg/mL
Strain A3, EA (P. clypearia 95% ethanol extract) combined with LVX
  combined-use MIC: 2 µg/mL
Strain A3, EA (water extract) with LVX
  combined-use MIC: 2 µg/mL
Strain A4, EA (10% ethanol extract) + LVX combined
  combined-use MIC: 0.0625 µg/mL
Strain A4, EA (60% ethanol extract) + LVX combined
  combined-use MIC: 0.0625 µg/mL
Strain A4, EA (P. clypearia 95% ethanol extract) combined with LVX
  combined-use MIC: 0.0625 µg/mL
Strain A4, EA (water extract) with LVX
  combined-use MIC: 0.0625 µg/mL
Strain A5, EA (10% ethanol extract) + LVX combined
  combined-use MIC: 2 µg/mL
Strain A5, EA (60% ethanol extract) + LVX combined
  combined-use MIC: 4 µg/mL
Strain A5, EA (water extract) with LVX
  combined-use MIC: 1 µg/mL
Strain A6, EA (10% ethanol extract) + LVX combined
  combined-use MIC: 4 µg/mL
Strain A6, EA (60% ethanol extract) + LVX combined
  combined-use MIC: 4 µg/mL
Strain A6, EA (P. clypearia 95% ethanol extract) combined with LVX
  combined-use MIC: 4 µg/mL
Strain A6, EA (water extract) with LVX
  combined-use MIC: 4 µg/mL
Strain A7, EA (10% ethanol extract) + LVX combined
  combined-use MIC: 4 µg/mL
Strain A7, EA (60% ethanol extract) + LVX combined
  combined-use MIC: 4 µg/mL
Strain A7, EA (P. clypearia 95% ethanol extract) combined with LVX
  combined-use MIC: 4 µg/mL
Strain A7, EA (water extract) with LVX
  combined-use MIC: 4 µg/mL
Strain A8, EA (10% ethanol extract) + LVX combined
  combined-use MIC: 2 µg/mL
Strain A8, EA (60% ethanol extract) + LVX combined
  combined-use MIC: 4 µg/mL
Strain A8, EA (P. clypearia 95% ethanol extract) combined with LVX
  combined-use MIC: 2 µg/mL
Strain A8, EA (water extract) with LVX
  combined-use MIC: 4 µg/mL
Strain A9, EA (10% ethanol extract) + LVX combined
  combined-use MIC: 0.0625 µg/mL
Strain A9, EA (60% ethanol extract) + LVX combined
  combined-use MIC: 0.0625 µg/mL
Strain A9, EA (P. clypearia 95% ethanol extract) combined with LVX
  combined-use MIC: 0.0625 µg/mL
Strain A9, EA (water extract) with LVX
  combined-use MIC: 0.0625 µg/mL
Strain A10, EA (10% ethanol extract) + LVX combined
  combined-use MIC: 8 µg/mL
Strain A10, EA (60% ethanol extract) + LVX combined
  combined-use MIC: 0.0625 µg/mL
Strain A10, EA (P. clypearia 95% ethanol extract) combined with LVX
  combined-use MIC: 2 µg/mL
Strain A10, EA (water extract) with LVX
  combined-use MIC: 8 µg/mL
Strain A11, EA (10% ethanol extract) + LVX combined
  combined-use MIC: 2 µg/mL
Strain A11, EA (60% ethanol extract) + LVX combined
  combined-use MIC: 4 µg/mL
Strain A11, EA (P. clypearia 95% ethanol extract) combined with LVX
  combined-use MIC: 4 µg/mL
Strain A11, EA (water extract) with LVX
  combined-use MIC: 2 µg/mL
Strain A12, EA (10% ethanol extract) + LVX combined
  combined-use MIC: 8 µg/mL
Strain A12, EA (60% ethanol extract) + LVX combined
  combined-use MIC: 1 µg/mL
Strain A12, EA (P. clypearia 95% ethanol extract) combined with LVX
  combined-use MIC: 1 µg/mL
Strain A12, EA (water extract) with LVX
  combined-use MIC: 2 µg/mL
Strain A13, EA (10% ethanol extract) + LVX combined
  combined-use MIC: 8 µg/mL
Strain A13, EA (60% ethanol extract) + LVX combined
  combined-use MIC: 0.0625 µg/mL
Strain A13, EA (P. clypearia 95% ethanol extract) combined with LVX
  combined-use MIC: 2 µg/mL
Strain A13, EA (water extract) with LVX
  combined-use MIC: 8 µg/mL
Strain A14, EA (10% ethanol extract) + LVX combined
  combined-use MIC: 8 µg/mL
Strain A14, EA (60% ethanol extract) + LVX combined
  combined-use MIC: 8 µg/mL
Strain A14, EA (P. clypearia 95% ethanol extract) combined with LVX
  combined-use MIC: 8 µg/mL
Strain A14, EA (water extract) with LVX
  combined-use MIC: 8 µg/mL
Strain A15, EA (10% ethanol extract) + LVX combined
  combined-use MIC: 16 µg/mL
Strain A15, EA (60% ethanol extract) + LVX combined
  combined-use MIC: 0.0625 µg/mL
Strain A15, EA (P. clypearia 95% ethanol extract) combined with LVX
  combined-use MIC: 2 µg/mL
Strain A15, EA (water extract) with LVX
  combined-use MIC: 0.0625 µg/mL
Strain A16, EA (10% ethanol extract) + LVX combined
  combined-use MIC: 4 µg/mL
Strain A16, EA (60% ethanol extract) + LVX combined
  combined-use MIC: 4 µg/mL
Strain A16, EA (P. clypearia 95% ethanol extract) combined with LVX
  combined-use MIC: 4 µg/mL
Strain A16, EA (water extract) with LVX
  combined-use MIC: 2 µg/mL
Strain A17, EA (10% ethanol extract) + LVX combined
  combined-use MIC: 4 µg/mL
Strain A17, EA (60% ethanol extract) + LVX combined
  combined-use MIC: 4 µg/mL
Strain A17, EA (P. clypearia 95% ethanol extract) combined with LVX
  combined-use MIC: 4 µg/mL
Strain A17, EA (water extract) with LVX
  combined-use MIC: 8 µg/mL
Strain A18, EA (10% ethanol extract) + LVX combined
  combined-use MIC: 4 µg/mL
Strain A18, EA (60% ethanol extract) + LVX combined
  combined-use MIC: 4 µg/mL
Strain A18, EA (P. clypearia 95% ethanol extract) combined with LVX
  combined-use MIC: 4 µg/mL
Strain A18, EA (water extract) with LVX
  combined-use MIC: 1 µg/mL
Strain A19, EA (10% ethanol extract) + LVX combined
  combined-use MIC: 2 µg/mL
Strain A19, EA (60% ethanol extract) + LVX combined
  combined-use MIC: 8 µg/mL
Strain A19, EA (P. clypearia 95% ethanol extract) combined with LVX
  combined-use MIC: 8 µg/mL
Strain A19, EA (water extract) with LVX
  combined-use MIC: 8 µg/mL
Strain A20, EA (10% ethanol extract) + LVX combined
  combined-use MIC: 4 µg/mL
Strain A20, EA (60% ethanol extract) + LVX combined
  combined-use MIC: 8 µg/mL
Strain A20, EA (P. clypearia 95% ethanol extract) combined with LVX
  combined-use MIC: 8 µg/mL
Strain A20, EA (water extract) with LVX
  combined-use MIC: 4 µg/mL
Strain AS, EA (P. clypearia 95% ethanol extract) combined with LVX
  combined-use MIC: 2 µg/mL
